# Assay results as given in patent US10220029B2, “Pharmaceutical composition comprising glutarimide derivatives and use thereof in the treatment of eosinophilic diseases” (OBSCHESTVO S ORGANICHENNOI OTVETSTVENNOSTIYU …, priority 2013, dated 2019).
# Marks after values point to notes of the source that are not given here.
# Columns and labels:
# [1] = system: model of bronchial asthma in guinea pigs; assay: Content of cell elements in BAL in the model of bronchial asthma in guinea pigs; format: in vivo, guinea pig; conditions: Table 4; 14 mg/kg, 10 times of administration; n = 9
# Protocol: Bronchial asthma in guinea pigs was induced by a standard method [Ricciardolo F L, Nijkamp F, De Rose V, Folkerts G. The guinea pig as an animal model for asthma// Current Drug Targets. 2008 June; 9(6):452-65]. The animals were immunized by one parenteral administration of 0.5 mL of a solution comprising 100 μg/mL ovalbumin (Sigma) and 100 mg/mL aluminium hydroxide. Intact animals received a physiological saline solution in an amount of 0.5 mL.
# On days 29, 30 and 31, hyperactivity of the respiratory airways was provoked by inhalation administration of ovalbumin in ascending concentrations of 0.1, 0.3, and 0.5 mg/mL on days 1, 2, and 3 of the provocation, respectively. The inhalation lasted 5 minutes or until asphyxia symptoms became apparent (fall to one side). On day 32, the animals received a challenging dose of ovalbumin (1 mg/mL) for 5 minutes, while assessing a bronchospastic reaction.
# The studied compounds were administered to the animals once daily every day for 6 or 10 days; the administration was terminated two days before the administration of the challenging dose of antigen.
# The bronchoalveolar lavage (BAL) and cardiac cavity blood were derived from the animals 24 hours after administration of the challenging dose. The BAL was collected under anesthesia by lavaging the lungs with 5 mL of a physiological saline solution heated to 37° C. through the trachea, using a syringe dosing device.
# The absolute number of cell elements in 1 μL of the lavage (cytosis) was counted in the bronchoalveolar lavage, using the Goryaev camera. Then, the BAL was centrifuged at 200 g for 10 minutes. The residue was used to prepare swabs that were fixed in methanol and stained according to Romanovsky-Giemsa to count endopulmonary cytogram.
# The study comprised 3 experiments, wherein the first one was directed to the evaluation of the effect of claimed compounds 1-6 on the cell composition of the BAL, the second and the third experiments were aimed at evaluating the effect of compounds 1 and 2 on the cell composition of the BAL, the cell composition of the blood, and on the bronchospasm severity.
# [2] = system: model of sephadex-induced eosinophilic lung inflammation in rats; assay: Content of cell elements in BAL in the model of sephadex-induced eosinophilic lung inflammation in rats; format: in vivo, male Wistar rats; conditions: Table 9, four times, BAL 48 hours after sephadex, n = 7
# Protocol: The model of sephadex-induced eosinophilic lung inflammation in rats was realized by a standard method [Evaldsson C, Rydén I, Uppugunduri S. Isomaltitol exacerbates neutrophilia but reduces eosinophilia: new insights into the sephadex model of lung inflammation//Int Arch Allergy Immunol. 2011; 154(4):286-94]. Sephadex G-200 (Pharmacia, Sweden) was administered one time by inhalation to male Wistar rats at a dose of 5 mg/kg. The studied compounds were administered to the animals by the intragastric route four times: 24 hours and 1 hour before and 24 hours and 45 hours after administration of sephadex. The reference preparation, budesonide, was administered according to the same scheme, by inhalation at a dose of 0.5 mg/kg. Bronchoalveolar lavage was taken 48 hours after the inhalation of sephadex, and the total lymphocyte count and leukocyte formula in the lavage were determined. The number of rats in a group was 7 to 10.
# [3] = system: model of leukotriene-induced eosinophilic lung inflammation in guinea pigs; assay: Content of cell elements in BAL in the model of leukotriene-induced eosinophilic lung inflammation in guinea pigs; format: in vivo, guinea pig; conditions: 0.8 mg/kg intragastric, one time one hour before LTD4 (reference preparation); BAL 48 hours after LTD4; n = 8
# Description: The model of leukotriene-induced eosinophilic lung inflammation in guinea pigs was realized by a standard method [Underwood DC1, Osborn R R, Newsholme S J, Torphy T J, Hay D W. Persistent airway eosinophilia after leukotriene (LT) D4 administration in the guinea pig: modulation by the LTD4 receptor antagonist, pranlukast, or an interleukin-5 monoclonal antibody// Am J Respir Crit Care Med. 1996 October; 154(4 Pt 1):850-7]. A solution of leukotriene D4 (LTD4, Cayman Chemical, USA) at a concentration of […] (a flow rate of 250 mL/hr) was inhaled to male guinea pigs (250-300 g) under conditions of a double-chamber plethysmograph (Emka Technologies, France) for one minute. The studied compound was administered to the animals by the intragastric route four times: 24 hours and 1 hour before and 24 hours and 45 hours after the inhalation of LTD4. The reference preparation, montelukast (0.8 mg/kg), was administered one time by the intragastric route one hour before the inhalation of LTD4. Bronchoalveolar lavage was taken 48 hours after the inhalation of LTD4, and the total lymphocyte count and leukocyte formula were determined in the lavage. The number of guinea pigs in a group was 8.
SMILES,Eosinophils in BAL [1],Lymphocytes in BAL [1],Monocytes in BAL [1],Neutrophils in BAL [1],"Eosinophils, content of cell elements in 1 μL of BAL ([2]; 1.8 mg/kg intragastric)","Leukocytes, content of cell elements in 1 μL of BAL ([2]; 1.8 mg/kg intragastric)","Lymphocytes, content of cell elements in 1 μL of BAL ([2]; 1.8 mg/kg intragastric)","Macrophages, content of cell elements in 1 μL of BAL ([2]; 1.8 mg/kg intragastric)","Neutrophils, content of cell elements in 1 μL of BAL ([2]; 1.8 mg/kg intragastric)","Eosinophils, content of cell elements in 1 μL of BAL ([2]; 18 mg/kg intragastric)","Leukocytes, content of cell elements in 1 μL of BAL ([2]; 18 mg/kg intragastric)","Lymphocytes, content of cell elements in 1 μL of BAL ([2]; 18 mg/kg intragastric)","Macrophages, content of cell elements in 1 μL of BAL ([2]; 18 mg/kg intragastric)","Neutrophils, content of cell elements in 1 μL of BAL ([2]; 18 mg/kg intragastric)","Eosinophils, content of cell elements in 1 μL of BAL [3]","Leukocytes, content of cell elements in 1 μL of BAL [3]","Lymphocytes, content of cell elements in 1 μL of BAL [3]","Macrophages, content of cell elements in 1 μL of BAL [3]","Neutrophils, content of cell elements in 1 μL of BAL [3]"
O=C1CCCC(=O)N1CCc1nccs1 [Compound 6],0.60 ± 0.21*& 10^9/L,1.03 ± 0.24* 10^9/L,0.83 ± 0.18* 10^9/L,0.97 ± 0.28* 10^9/L,,,,,,,,,,,,,,,
Cl.O=C1CCCC(=O)N1CCC1CCCN1 (centres unmarked) [Compound 7],,,,,28 ± 16& in 1 μL of BAL,2242 ± 289& in 1 μL of BAL,16 ± 10 in 1 μL of BAL,913 ± 235& in 1 μL of BAL,389 ± 188 in 1 μL of BAL,164 ± 62 & in 1 μL of BAL,1725 ± 345& in 1 μL of BAL,29 ± 17 in 1 μL of BAL,909 ± 299& in 1 μL of BAL,136 ± 50& in 1 μL of BAL,,,,,
CC1CC(=O)N(CCc2cnc[nH]2)C(=O)C1 [Compound 8],,,,,202 ± 53*& in 1 μL of BAL,2796 ± 333 & in 1 μL of BAL,82 ± 44 in 1 μL of BAL,1860 ± 204& in 1 μL of BAL,303 ± 104& in 1 μL of BAL,318 ± 65*& in 1 μL of BAL,4250 ± 576 in 1 μL of BAL,64 ± 45 in 1 μL of BAL,2050 ± 462& in 1 μL of BAL,583 ± 180 in 1 μL of BAL,,,,,
"CC(C)(O)c1ccccc1CC[C@@H](SCC1(CC(=O)O)CC1)c1cccc(/C=C/c2ccc3ccc(Cl)cc3n2)c1 [Montelukast, montelukast, reference compound]",,,,,,,,,,,,,,,618 ± 116*& in 1 μL of BAL,24065 ± 415*& in 1 μL of BAL,96 ± 39 in 1 μL of BAL,1519 ± 263 in 1 μL of BAL,173 ± 41 in 1 μL of BAL
